Data as given in patent US10946051B2, “Strain of Bifidobacterium animalis subsp. lactis CECT 8145 and use thereof for the treatment and/or prevention of excess weight and obesity and associated diseases” (priority 2013, dated 2021).
Converted amounts (≈) assume the structure as drawn. Read-outs that look alike come from different tables or passages of the source.

Test system: strain BIF-1
Assay: Antibiotic resistance profile (minimum inhibitory concentration)
Type: cell-based, Bifidobacterium animalis subsp. lactis
Experimental: Specifically, the production of unwanted metabolites was evaluated: lactic acid isomer production (Table 9), bile-salt deconjugation (Table 10) and biogenic amine production (Table 11), and the antibiotic resistance profile (Table 12).

[1] = Bifidobacterium animalis, BIF1; read-out: CMI (minimum inhibitory concentration of antibiotics)

Row | Compound | MIC [1] | other results
1 | CC1(C)S[C@@H]2[C@H](NC(=O)[C@H](N)c3ccccc3)C(=O)N2[C@H]1C(=O)O [Ampicillin] | 2 µg/mL (≈ 5.72 µM) | 
2 | O=C(N[C@H](CO)[C@H](O)c1ccc([N+](=O)[O-])cc1)C(Cl)Cl [Chloramphenicol] | 4 µg/mL (≈ 12.4 µM) | 
3 | CC[C@H]1OC(=O)[C@H](C)[C@@H](O[C@H]2C[C@@](C)(OC)[C@@H](O)[C@H](C)O2)[C@H](C)[C@@H](O[C@@H]2O[C@H](C)C[C@H](N(C)C)[C@H]2O)[C@](C)(O)C[C@@H](C)C(=O)[C@H](C)[C@@H](O)[C@]1(C)O [Erythromycin] | 0.5 µg/mL (≈ 0.681 µM) | 
4 | NC[C@H]1O[C@H](O[C@H]2[C@H](O)[C@@H](O[C@H]3O[C@H](CO)[C@@H](O)[C@H](N)[C@H]3O)[C@H](N)C[C@@H]2N)[C@H](O)[C@@H](O)[C@@H]1O [Kanamycin] | 128 µg/mL (≈ 264 µM) | 
5 | [H]/N=C(/N)N[C@H]1[C@H](O)[C@@H](O)[C@H](O[C@@H]2O[C@@H](C)[C@](O)(C=O)[C@H]2O[C@@H]2O[C@@H](CO)[C@H](O)[C@@H](O)[C@@H]2NC)[C@@H](N/C(N)=N\[H])[C@@H]1O [Streptomycin] | 128 µg/mL (≈ 220 µM) | 
6 | CN(C)[C@@H]1C(O)=C(C(N)=O)C(=O)[C@@]2(O)C(O)=C3C(=O)c4c(O)cccc4[C@@](C)(O)[C@H]3C[C@@H]12 [Tetracycline] | 8 µg/mL (≈ 18 µM) | 
7 | CN[C@H](CC(C)C)C(=O)N[C@H]1C(=O)N[C@@H](CC(N)=O)C(=O)N[C@H]2C(=O)N[C@H]3C(=O)N[C@H](C(=O)N[C@H](C(=O)O)c4cc(O)cc(O)c4-c4cc3ccc4O)[C@H](O)c3ccc(c(Cl)c3)Oc3cc2cc(c3O[C@@H]2O[C@H](CO)[C@@H](O)[C@H](O)[C@H]2O[C@H]2C[C@](C)(N)[C@H](O)[C@H](C)O2)Oc2ccc(cc2Cl)[C@H]1O [Vancomycin] |  | MIC (Bifidobacterium animalis, BIF1, read-out: CMI (minimum inhibitory concentration of antibiotics)): 1 µg/mL (≈ 0.69 µM)
8 | Gentamicin |  | CMI (minimum inhibitory concentration of antibiotics) (obtained for strain BIF-1): 64 µg/mL
